Reference: ChEMBL document CHEMBL1201862, “PubChem BioAssay data set” (2004)
Where a name gives a salt, the structure may show the parent alone. Active and inactive are the calls of the source.

How the values were obtained:
Bcl-2-related protein A1 [1] = target: T1, Bcl-2-related protein A1 (Mus musculus, UniProt Q07440); assay: Bfl-1 inhibitors, primary screen, biochemical, fluorescence polarization, FITC-Bid, mouse (AID 432)
T1 sequence (Q07440 whole entry): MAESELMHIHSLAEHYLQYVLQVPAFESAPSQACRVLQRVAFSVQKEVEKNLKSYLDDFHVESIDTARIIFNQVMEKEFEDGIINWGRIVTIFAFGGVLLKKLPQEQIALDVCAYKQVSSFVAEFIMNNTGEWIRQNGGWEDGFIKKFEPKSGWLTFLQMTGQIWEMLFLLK

Bcl-2-related protein A1 [2] = target: T1, Bcl-2-related protein A1; assay: Bfl-1 inhibitors blocking BH3 peptide binding, confirmation, biochemical, TR-FRET, mouse Bfl-1 (AID 621);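 also: TR-FRET binding of GST-Bfl-1 to FITC-labelled Bid peptide via terbium antibody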
[3] = target: T2, Sentrin-specific protease 1 (Homo sapiens, UniProt Q9P0U3); assay: potency of human SENP1 inhibitors, dose response, biochemical, kinetic FRET (AID 651697); assay type: functional; conditions: read-out: IC50_Mean
T2 sequence (Q9P0U3 whole entry): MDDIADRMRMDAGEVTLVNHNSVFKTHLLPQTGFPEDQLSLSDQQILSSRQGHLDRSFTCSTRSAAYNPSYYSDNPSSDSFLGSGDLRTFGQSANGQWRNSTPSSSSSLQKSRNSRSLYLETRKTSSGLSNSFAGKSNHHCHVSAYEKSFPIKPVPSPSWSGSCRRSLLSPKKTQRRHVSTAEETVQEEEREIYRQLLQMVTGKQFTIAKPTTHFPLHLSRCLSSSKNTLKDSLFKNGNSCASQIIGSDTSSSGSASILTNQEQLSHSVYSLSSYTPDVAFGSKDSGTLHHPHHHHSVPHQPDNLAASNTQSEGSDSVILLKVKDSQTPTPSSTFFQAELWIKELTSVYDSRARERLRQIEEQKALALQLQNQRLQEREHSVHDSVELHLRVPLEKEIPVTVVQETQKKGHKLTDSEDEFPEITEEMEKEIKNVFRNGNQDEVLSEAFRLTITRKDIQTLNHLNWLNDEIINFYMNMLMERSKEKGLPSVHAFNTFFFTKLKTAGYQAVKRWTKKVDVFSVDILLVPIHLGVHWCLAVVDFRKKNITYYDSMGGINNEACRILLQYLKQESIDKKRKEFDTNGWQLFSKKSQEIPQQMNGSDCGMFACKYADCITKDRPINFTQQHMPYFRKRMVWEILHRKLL

[4] = target: T2, Sentrin-specific protease 1; assay: Dose response confirmation of small molecule inhibitors of the catalytic domain of the SUMO protease, SENP1 in a FRET assay.; assay type: functional; conditions: read-out: IC50_Mean
Heat shock protein HSP90 = Heat shock protein HSP90 (Homo sapiens, UniProt P07900+P08238); assay: tumor Hsp90 inhibitor potency, dose response (AID 712); assay type: functional
[5] = target: T3, RNA-binding protein pos-1 (Caenorhabditis elegans, UniProt G5EF15); assay: inhibitors of POS-1/mex-3 RNA binding, dose response, biochemical, fluorescence polarization (AID 1964);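 also: purified POS-1 fused to maltose binding protein made in E. coli; potency of compounds blocking POS-1 binding to fluorescent RNA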
T3 sequence (G5EF15 whole entry): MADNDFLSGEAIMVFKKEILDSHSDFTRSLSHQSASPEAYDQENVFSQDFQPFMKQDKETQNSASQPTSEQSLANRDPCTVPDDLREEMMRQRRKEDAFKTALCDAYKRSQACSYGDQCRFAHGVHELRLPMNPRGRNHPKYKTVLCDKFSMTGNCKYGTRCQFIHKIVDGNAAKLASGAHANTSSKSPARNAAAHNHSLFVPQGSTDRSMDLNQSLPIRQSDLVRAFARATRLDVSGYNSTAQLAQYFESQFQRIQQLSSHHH

14-3-3 protein gamma = target: T4, 14-3-3 protein gamma (Homo sapiens, UniProt P61981); assay: modulators of 14-3-3 gamma client binding – dose response (AID 711); assay type: functional
T4 sequence (P61981 whole entry): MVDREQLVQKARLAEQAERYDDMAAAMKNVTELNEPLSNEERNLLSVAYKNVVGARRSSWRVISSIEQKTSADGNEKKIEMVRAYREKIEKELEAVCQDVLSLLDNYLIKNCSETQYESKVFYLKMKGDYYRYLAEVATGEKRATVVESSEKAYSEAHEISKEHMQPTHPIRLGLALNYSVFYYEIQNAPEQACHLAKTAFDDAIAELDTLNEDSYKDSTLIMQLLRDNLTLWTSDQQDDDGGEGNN

Troponin, cardiac muscle = Troponin, cardiac muscle (Homo sapiens, UniProt P19429+P45379+P63316); assay: Fluorescence-based biochemical high throughput dose response assay for activators of the calcium sensitivity of cardiac Regulated Thin Filaments (RTF). [Related pubchem assays (depositor defined):AID493008, AID493018, AID504382, AID504383]; assay type: protein-complex assay
[6] = target: T5, Endoribonuclease toxin MazF (Escherichia coli K-12, UniProt P0AE70); assay: MazF toxin RNase activators, dose response, biochemical, fluorescence, single-stranded RNA substrate, uHTS hits (AID 588481); assay type: functional
T5 sequence (P0AE70 whole entry): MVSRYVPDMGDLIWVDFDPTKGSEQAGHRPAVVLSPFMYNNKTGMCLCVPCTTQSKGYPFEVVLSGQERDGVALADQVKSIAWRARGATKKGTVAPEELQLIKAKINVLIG

[7] = target: UDP-galactopyranose mutase (Mycobacterium tuberculosis, UniProt P9WIQ1); assay: Inhibitors of Mycobacterium tuberculosis UDP-galactopyranose mutase (UGM) enzyme Measured in Biochemical System Using Plate Reader - 2105-02_Inhibitor_Dose_CherryPick_Activity. [Related pubchem assays (depositor defined):AID504439]
Sequence of UDP-galactopyranose mutase (P9WIQ1 whole entry): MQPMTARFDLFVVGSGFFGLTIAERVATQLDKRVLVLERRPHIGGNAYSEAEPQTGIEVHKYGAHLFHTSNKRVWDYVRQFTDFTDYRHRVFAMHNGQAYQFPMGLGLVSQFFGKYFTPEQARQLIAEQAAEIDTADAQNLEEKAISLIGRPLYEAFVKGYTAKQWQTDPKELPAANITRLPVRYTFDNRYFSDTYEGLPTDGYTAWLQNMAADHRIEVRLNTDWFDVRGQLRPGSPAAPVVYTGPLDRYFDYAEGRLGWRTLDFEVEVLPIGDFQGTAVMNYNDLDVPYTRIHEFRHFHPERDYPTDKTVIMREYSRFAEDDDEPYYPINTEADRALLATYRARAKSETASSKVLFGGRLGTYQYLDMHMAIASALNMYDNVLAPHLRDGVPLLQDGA

[8] = target: T5, Endoribonuclease toxin MazF; assay: fluorescent RNA oligo signal without MazF, dose response, counter-screen for MazEF activator project, biochemical, fluorescence, single-stranded RNase substrate (AID 588502); assay type: functional
[9] = target: T6, Corticotropin-releasing factor receptor 2/Corticotropin-releasing factor-binding protein (Homo sapiens, UniProt P24387+Q13324); assay: activators of CRF receptor 2 with binding protein – uHTS hits, confirmation (AID 602473); assay type: functional; conditions: read-out: EC50_Mean
T6 sequence (Q13324 whole entry): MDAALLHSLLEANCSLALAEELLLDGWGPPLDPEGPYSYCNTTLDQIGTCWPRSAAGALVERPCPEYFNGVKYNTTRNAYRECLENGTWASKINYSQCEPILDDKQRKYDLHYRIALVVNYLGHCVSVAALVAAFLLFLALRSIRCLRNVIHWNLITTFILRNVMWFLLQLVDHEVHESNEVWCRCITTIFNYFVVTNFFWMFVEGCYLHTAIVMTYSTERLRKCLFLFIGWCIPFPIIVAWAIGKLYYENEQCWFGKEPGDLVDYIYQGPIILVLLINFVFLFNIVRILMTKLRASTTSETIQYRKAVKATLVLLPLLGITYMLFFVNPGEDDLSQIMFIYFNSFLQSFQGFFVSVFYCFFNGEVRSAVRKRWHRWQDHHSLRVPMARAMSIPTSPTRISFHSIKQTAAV
T6 sequence (P24387 whole entry): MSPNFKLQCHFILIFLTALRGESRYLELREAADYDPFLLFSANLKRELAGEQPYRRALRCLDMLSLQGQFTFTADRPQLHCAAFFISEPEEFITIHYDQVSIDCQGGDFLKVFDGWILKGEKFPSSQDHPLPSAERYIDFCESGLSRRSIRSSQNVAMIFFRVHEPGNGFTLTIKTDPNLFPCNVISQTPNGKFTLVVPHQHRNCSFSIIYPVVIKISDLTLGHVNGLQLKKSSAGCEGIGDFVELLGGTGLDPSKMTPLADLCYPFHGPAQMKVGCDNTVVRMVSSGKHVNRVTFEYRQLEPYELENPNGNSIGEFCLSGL

HEK293 = assay: Fluorescence-based counterscreen for potentiators or agonists of NPY-Y2: cell-based high-throughput dose response assay to identify inhibitors of cyclic nucleotide gated ion channel (CNGC) activity. In this assay, the parental HEK293 cell line transfected with a cyclic-nucleotide gated ion channel (CNGC)-based cAMP sensor is used to measure inhibition of isoproterenol-induced CNGC activity by test compound.; assay type: functional; conditions: Homo sapiens
[10] = target: T7, Heat shock factor protein 1 (Mus musculus, UniProt P38532); assay: inhibition of MG132-induced HSE-luciferase signal, confirmation, cell-based, NIH3T3, luminescence, dose retest (AID 2382); assay type: functional;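 also: NIH3T3 fibroblasts with HSF1-driven luciferase reporter stressed by proteasome inhibitor MG132; luminescence from HSF1-driven luciferase expression after 8 hours of MG132 stress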
T7 sequence (P38532 whole entry): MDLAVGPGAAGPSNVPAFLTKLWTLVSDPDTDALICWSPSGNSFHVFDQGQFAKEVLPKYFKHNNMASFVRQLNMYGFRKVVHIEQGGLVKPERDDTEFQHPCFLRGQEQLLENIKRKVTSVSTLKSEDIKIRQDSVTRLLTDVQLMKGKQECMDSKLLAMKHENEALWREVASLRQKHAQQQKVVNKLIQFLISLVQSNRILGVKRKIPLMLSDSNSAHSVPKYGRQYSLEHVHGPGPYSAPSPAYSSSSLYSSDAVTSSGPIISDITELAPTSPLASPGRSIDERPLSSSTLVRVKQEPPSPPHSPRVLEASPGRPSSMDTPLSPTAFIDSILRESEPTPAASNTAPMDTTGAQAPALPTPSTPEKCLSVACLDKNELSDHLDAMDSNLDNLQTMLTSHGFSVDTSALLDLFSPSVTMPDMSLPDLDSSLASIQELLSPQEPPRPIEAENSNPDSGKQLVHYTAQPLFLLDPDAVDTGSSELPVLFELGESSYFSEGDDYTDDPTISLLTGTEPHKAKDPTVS

[11] = target: Solute carrier family 12 member 2/member 5 (Homo sapiens, UniProt P55011+Q9H2X9); assay: KCC2 and NKCC1 inhibition by rubidium flux, cell-based, NKCC1 counter-screen (AID 1734); assay type: functional, HEK293
[12] = P. falciparum 3D7-ScDHODH growth inhibitors, dose response, SYBR Green, dry powder samples (AID 1159570); assay type: functional, cell-based;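 also: parasite growth measured after 72 hours of compound exposure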
[13] = HepG2 cell cytotoxicity, dose response, cytotoxicity control, plate reader, dry powder samples (AID 1159569); assay type: functional, cell-based;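 also: inhibitor potency with signal falling toward the positive control level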
[14] = P. falciparum Dd2 growth inhibitors, dose response, SYBR Green, dry powder samples, set 9 (AID 1159568); assay type: functional, cell-based
[15] = P. falciparum Dd2 growth inhibitors, dose response, SYBR Green, cherry-picked samples (AID 1159567); assay type: functional, cell-based
[16] = P. falciparum Dd2 growth inhibitors, dose response, SYBR Green, dry powder samples (AID 1159566); assay type: functional, cell-based;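 also: potency for growth inhibition with lower SYBR green DNA signal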
[17] = HepG2 cell cytotoxicity, dose response, cytotoxicity control, cherry-picked samples (AID 1159577); assay type: functional, cell-based
[18] = Plasmodium falciparum Dd2 Sybr green parasite growth Measured in Cell-Based and Microorganism Combination System Using Plate Reader - 2153-01_Inhibitor_Dose_DryPowder_Activity_Set3.; assay type: functional
[19] = P. falciparum ATP4 D1247Y mutant growth inhibitors, dose response, NITD609-resistant line, SYBR Green, dry powder (AID 1159571); assay type: functional, cell-based;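 also: parasites synchronized at ring stage by sorbitol before testing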

## Nc1ccc(C2CCCc3nonc32)c2nonc12 (stereo not drawn)
Bcl-2-related protein A1 [1]
  IC50: > 100 µM (not active)
Bcl-2-related protein A1 [2]
  IC50: > 100 µM (not active)
[3]
  IC50: 42 µM (inactive)
[4]
  IC50: 39.4 µM (inactive)

## CN(C)c1ccc(/N=C/c2nc(-c3ccccc3)oc2O)cc1
Heat shock protein HSP90
  IC50: 27.302 µM
[5]
  EC50: 5.7 µM (active)
14-3-3 protein gamma
  IC50: 9.68 µM (active)
Troponin, cardiac muscle
  EC50: 3.71 µM (active)
[6]
  EC50: 46.7 µM (inactive)
[7]
  AC50: 68.2 µM (active)
[8]
  EC50: 56.6 µM (inactive)
[9]
  EC50: 7.96 µM (active)

## COCCc1ccc(OCC(O)CNC(C)C)cc1 (stereo not drawn) [METOPROLOL TARTRATE]
HEK293
  EC50: 2.99 µM (active)

## Cc1csc(NC(=O)CSc2ccc(-c3ccccc3)nn2)n1
[10]
  EC50: > 195 µM (not active)
[11]
  IC50: 0.56 µM (active)

## COc1ccc(-c2ccc([C@H]3[C@@H](C#N)N(C(=O)NC(C)C)[C@H]3CO)cc2)cc1
[12]
  AC50: 3.98 µM (active)
[13]
  AC50: 80.6 µM (active)
[14]
  AC50: 1.2 µM (active)
[15]
  AC50: 0.89 µM (active)
[16]
  AC50: 0.559 µM (active)
[17]
  AC50: 3.33 µM (active)
[18]
  AC50: 1.86 µM (active)
[19]
  AC50: 0.874 µM (active)
